Test results as given in patent US8735152B2, “Methods for inducing cell death in pluripotent stem cells and differentiated cells other than cardiac myocytes” (Daiichi Sankyo Company, Limited, priority 2009, dated 2014).

Tests used:
[1] = Saccharide concentration and osmotic pressure of hypertonic solutions (measured values); format: physicochemical
Description: When the hypertonic solution having an osmotic pressure of 370 mOsm/kg or higher is prepared by adding a saccharide to the culture medium, the method of the present invention is characterized in that the hypertonic solution contains the saccharide in 0.1-1 M (mol/L), preferably 0.1-0.6 M (mol/L). The relation between the concentration of saccharide (mol/L) and the osmotic pressure (mOsm/kg) can be approximated by a substantially straight line; a hypertonic solution containing 0.1 M saccharide corresponds to one having an osmotic pressure of approximately 370 mOsm/kg and a hypertonic solution containing 1 M saccharide corresponds to one having an osmotic pressure of approximately 1300-1600 mOsm/kg.
Hypertonic solutions were prepared using various saccharides and the relation between the saccharide concentration and the osmotic pressure is shown in the following table for typical saccharides.

[2] = tested on: mouse embryonic stem cells; test: Cell death inducing effect of low-concentration mannitol on mouse embryonic stem cells (adhesion, morphology); format: cell-based; conditions: 0.2 M
Description: Embryonic stem cells as cultured by the method described in Example 1 were cultured for an additional 48 or 72 hours in an α-MEM culture medium containing 0.2 M mannitol (approximately equivalent to 480 mOsm/kg); thereafter, the stem cells were checked for the state of their survival in terms of cell adhesion or non-adhesion and by morphological observation; the results are shown in FIG. 15.

[3] = tested on: marmoset embryonic stem cells; test: Cell death inducing effect on marmoset embryonic stem cells (TMRM FACS, 5-day adherent culture); format: cell-based; conditions: 0.45 M, 2 hours
Description: The marmoset embryonic stem cells were obtained from the Central Institute for Experimental Animals (Stem Cells, 2005 October; 23(9): 1304-13). The cells were cultured basically in accordance with the method described in this document. To be more specific, the marmoset embryonic stem cells were cultured to maintain their undifferentiated state using mouse embryonic fibroblasts (MEF) that had been inactivated for growth by treatment with mitomycin C. The culture medium of KO-DMEM (GIBCO), supplemented with 20% KO-SERUM (GIBCO), 1.6 mM L-glutamine, 0.1 mM non-essential amino acids (MEM), 0.2 mM β-mercaptoethanol (2-ME; Sigma), 100 IU/ml penicillin, 100 μg/ml streptomycin sulfate, and 8 ng/ml recombinant human leukemia inhibiting factor (LIF; Chemicon) or recombinant human basic fibroblast growth factor (bFGF; Peprotech) was used. Upon passaging, the cells were treated with 0.1% type III collagenase (Wortington) at 37° C. for 10 minutes to separate ES colonies. […] Thereafter, the cells treated with mannitol for 2 hours and the control cells were analyzed by FACS for the level of mitochondrial membrane potential on the basis of the fluorescent intensity of TMRM to check the state of survival of the stem cells; the results are shown in FIG. 5. […]

## OC[C@@H](O)[C@@H](O)[C@H](O)[C@H](O)CO [mannitol]
[1]; saccharide concentration 0.2 M in culture medium
  Osmotic pressure: ~480 mOsm/kg
[1]; saccharide concentration 0.45 M in culture medium
  Osmotic pressure: ~720 mOsm/kg
[1]; saccharide concentration 0.45 M in culture medium, listed as Mannitol
  Osmotic pressure: 717 mOsm/kg
[1]; saccharide concentration 0.6 M in culture medium
  Osmotic pressure: 875 mOsm/kg
[1]; saccharide concentration 0.9 M in culture medium
  Osmotic pressure: 1234 mOsm/kg
[2]; 48 hours
  State of survival (cell adhesion, morphology): almost all colonies had already detached from the culture dish
[2]; 72 hours
  State of survival (cell adhesion, morphology): the cells were completely dead
[3]
  Mitochondrial membrane potential (TMRM fluorescence, FACS): almost all of the cells treated with mannitol for 2 hours had lost membrane potential
[3]; then 5 days adherent culture
  Survival after adherent culture for 5 days: none of the cells exposed to mannitol were found alive
